Four compounds from ChEMBL document CHEMBL5465560, “Selectivity Literature for EUbOPEN Chemogenomic Library” (2024) can be followed below.

Experiment [1] deals with Calcium/calmodulin-dependent protein kinase type 1G (Homo sapiens) (UniProt Q96NX5). Nature of the experiment: Selectivity interaction (Kinase panel (Z-LYTE Assay)) EUB0001632a CAMK1G. The following applies: at 10 µM.
Experiment [2] has as its target T1, Serine/threonine-protein kinase D1 (Homo sapiens) (UniProt Q15139).
T1 sequence (whole entry): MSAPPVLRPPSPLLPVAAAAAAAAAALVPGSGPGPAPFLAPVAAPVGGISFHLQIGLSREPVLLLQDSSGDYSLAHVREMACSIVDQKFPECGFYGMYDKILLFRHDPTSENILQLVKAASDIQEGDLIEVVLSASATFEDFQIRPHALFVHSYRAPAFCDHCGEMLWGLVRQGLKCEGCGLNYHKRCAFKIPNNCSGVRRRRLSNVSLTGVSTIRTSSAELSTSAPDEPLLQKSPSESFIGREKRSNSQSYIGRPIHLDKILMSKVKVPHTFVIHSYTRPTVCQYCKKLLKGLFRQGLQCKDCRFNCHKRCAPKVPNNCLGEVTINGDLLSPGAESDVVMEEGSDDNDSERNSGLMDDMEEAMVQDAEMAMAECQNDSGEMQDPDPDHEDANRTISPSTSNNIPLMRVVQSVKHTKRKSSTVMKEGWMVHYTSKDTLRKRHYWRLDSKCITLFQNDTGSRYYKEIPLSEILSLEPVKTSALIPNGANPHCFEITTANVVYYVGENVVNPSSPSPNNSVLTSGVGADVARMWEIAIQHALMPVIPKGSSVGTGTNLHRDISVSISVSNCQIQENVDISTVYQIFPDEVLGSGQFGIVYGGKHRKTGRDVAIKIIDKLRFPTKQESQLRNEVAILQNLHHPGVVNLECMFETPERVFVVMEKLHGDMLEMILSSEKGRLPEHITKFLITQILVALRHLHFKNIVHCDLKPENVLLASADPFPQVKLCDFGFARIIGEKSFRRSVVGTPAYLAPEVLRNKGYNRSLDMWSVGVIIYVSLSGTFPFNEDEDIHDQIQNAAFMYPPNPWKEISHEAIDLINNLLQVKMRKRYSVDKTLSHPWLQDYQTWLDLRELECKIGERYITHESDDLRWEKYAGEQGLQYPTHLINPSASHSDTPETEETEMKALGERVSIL
Nature of the experiment: Selectivity interaction (Kinase panel (Z-LYTE Assay)) EUB0001632a PRKD1. As to conditions: at 10 µM.

Experiment [3] addresses T2, Serine/threonine-protein kinase Nek1 (Homo sapiens) (UniProt Q96PY6).
T2 sequence (whole entry): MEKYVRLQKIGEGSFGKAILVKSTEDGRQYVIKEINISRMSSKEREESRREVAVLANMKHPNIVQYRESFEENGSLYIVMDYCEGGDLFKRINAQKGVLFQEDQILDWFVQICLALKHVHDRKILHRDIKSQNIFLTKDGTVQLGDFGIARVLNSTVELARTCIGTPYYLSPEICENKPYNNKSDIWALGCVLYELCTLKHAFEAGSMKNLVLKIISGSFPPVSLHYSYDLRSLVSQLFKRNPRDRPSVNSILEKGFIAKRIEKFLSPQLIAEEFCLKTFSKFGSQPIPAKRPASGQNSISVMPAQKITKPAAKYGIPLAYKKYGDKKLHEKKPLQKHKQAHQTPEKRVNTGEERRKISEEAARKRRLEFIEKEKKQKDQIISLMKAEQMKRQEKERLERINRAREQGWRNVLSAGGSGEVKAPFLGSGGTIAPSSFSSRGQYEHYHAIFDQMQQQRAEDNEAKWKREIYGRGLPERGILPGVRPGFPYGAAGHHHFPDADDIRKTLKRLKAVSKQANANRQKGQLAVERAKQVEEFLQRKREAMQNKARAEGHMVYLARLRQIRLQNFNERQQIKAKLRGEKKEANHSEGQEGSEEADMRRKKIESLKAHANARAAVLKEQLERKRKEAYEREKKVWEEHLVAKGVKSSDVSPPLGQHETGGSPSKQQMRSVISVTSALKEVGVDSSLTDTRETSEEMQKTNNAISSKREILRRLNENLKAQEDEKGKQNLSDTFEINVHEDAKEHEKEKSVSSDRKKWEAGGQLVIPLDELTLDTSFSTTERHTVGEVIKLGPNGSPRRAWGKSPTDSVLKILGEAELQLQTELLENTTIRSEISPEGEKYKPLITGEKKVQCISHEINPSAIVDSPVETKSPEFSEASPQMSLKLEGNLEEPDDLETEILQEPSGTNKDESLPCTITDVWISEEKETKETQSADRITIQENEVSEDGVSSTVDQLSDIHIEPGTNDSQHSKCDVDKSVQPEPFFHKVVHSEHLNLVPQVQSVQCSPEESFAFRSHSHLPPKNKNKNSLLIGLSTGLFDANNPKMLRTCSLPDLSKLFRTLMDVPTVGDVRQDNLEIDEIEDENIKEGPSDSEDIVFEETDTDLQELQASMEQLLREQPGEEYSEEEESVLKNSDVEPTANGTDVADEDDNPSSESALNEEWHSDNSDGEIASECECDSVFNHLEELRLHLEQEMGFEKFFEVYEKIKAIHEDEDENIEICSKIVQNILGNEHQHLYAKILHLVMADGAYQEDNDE
Description: Selectivity interaction (KinomeScan (DiscoverX)) EUB0000607a NEK1. The following applies: at 10 µM.

The target in experiment [4] is T3, Activin receptor type-1 (Homo sapiens) (UniProt Q04771).
T3 sequence (whole entry): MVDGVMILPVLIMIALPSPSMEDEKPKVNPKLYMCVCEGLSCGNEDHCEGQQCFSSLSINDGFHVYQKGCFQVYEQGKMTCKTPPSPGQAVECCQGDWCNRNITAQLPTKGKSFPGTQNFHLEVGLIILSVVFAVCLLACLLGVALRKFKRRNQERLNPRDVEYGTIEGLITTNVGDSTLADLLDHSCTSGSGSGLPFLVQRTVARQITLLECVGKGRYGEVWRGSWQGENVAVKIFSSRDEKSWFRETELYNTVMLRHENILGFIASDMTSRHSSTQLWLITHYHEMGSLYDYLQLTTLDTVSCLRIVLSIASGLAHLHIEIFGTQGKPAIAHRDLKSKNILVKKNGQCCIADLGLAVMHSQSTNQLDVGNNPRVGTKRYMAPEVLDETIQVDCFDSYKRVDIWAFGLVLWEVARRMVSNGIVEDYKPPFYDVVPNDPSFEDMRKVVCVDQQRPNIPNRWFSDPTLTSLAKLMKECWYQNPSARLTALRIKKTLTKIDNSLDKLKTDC
Nature of the experiment: Selectivity interaction (KinomeScan (DiscoverX)) EUB0001079a ACVR1. The following applies: at 1 µM.

The target of experiment [5] is Mitogen-activated protein kinase 8 (Homo sapiens, UniProt P45983). Description: Selectivity interaction (KinomeScan (DiscoverX)) EUB0000595a MAPK8. As to conditions: at 10 µM.
Mitogen-activated protein kinase 8, sequence (P45983 whole entry): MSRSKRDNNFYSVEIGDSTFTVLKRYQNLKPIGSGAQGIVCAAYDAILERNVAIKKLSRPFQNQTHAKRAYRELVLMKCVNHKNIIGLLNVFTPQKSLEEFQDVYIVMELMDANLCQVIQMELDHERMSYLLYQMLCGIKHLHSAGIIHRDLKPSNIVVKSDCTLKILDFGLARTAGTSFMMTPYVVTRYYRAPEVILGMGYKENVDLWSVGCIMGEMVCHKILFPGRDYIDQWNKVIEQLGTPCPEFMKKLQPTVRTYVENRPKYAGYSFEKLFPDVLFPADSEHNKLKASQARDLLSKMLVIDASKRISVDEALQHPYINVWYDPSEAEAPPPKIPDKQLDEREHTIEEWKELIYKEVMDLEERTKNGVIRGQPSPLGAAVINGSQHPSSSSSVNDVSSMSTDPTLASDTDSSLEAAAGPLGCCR

Calcium/calmodulin-dependent protein kinase type 1G (Homo sapiens), sequence (Q96NX5 whole entry): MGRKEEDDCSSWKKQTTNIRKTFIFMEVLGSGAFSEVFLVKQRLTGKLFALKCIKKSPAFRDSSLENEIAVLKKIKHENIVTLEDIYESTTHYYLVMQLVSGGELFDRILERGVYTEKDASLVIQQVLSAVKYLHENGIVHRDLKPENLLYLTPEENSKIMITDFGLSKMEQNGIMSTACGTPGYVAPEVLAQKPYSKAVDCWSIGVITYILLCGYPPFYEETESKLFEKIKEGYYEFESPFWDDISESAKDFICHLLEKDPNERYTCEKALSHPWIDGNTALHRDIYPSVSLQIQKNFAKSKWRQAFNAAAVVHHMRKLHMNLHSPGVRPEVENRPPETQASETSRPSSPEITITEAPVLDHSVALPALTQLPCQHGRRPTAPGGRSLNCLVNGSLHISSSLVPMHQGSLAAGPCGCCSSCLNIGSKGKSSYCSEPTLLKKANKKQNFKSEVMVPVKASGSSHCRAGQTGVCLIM

For `Cn1cc(-n2cnc3c(NCc4nc5cc(Cl)c(Cl)cc5[nH]4)nc(N4CCOCC4)nc32)cn1`, the values for the % of control in experiment [1] and in experiment [2] were -0.991% and 3.91%, respectively.

As to `CNC(=O)Nc1ccc(-c2nc(N3CC4CCC(C3)O4)c3cnn(C4CCC5(CC4)OCCO5)c3n2)cc1`, in experiment [3], the % of control turned out to be 100%.

For the compound `Nc1cnc(N2CCc3cc(S(=O)(=O)Nc4c(F)cc(Cl)cc4F)cc(N4CCCC4=O)c32)nc1` [TP-020n], in experiment [4], the % of control was 100%.

For `COCC(=O)NC/C=C/c1ccc2ncnc(Nc3ccc(Oc4ccc(C)nc4)c(C)c3)c2c1` [CP-724714], in experiment [5], the % of control was determined as 66%.
